Entries after “also recorded” stand apart in the source; their conditions may differ. Where two headings read alike, the source gives them in different places.
Assays:
Pseudomonas aeruginosa [1] = assay: PI staining, broad spectrum activity; assay type: cell-based; details: 50 μg/ml
Pseudomonas aeruginosa [2] = assay: CFU determination, broad spectrum activity; assay type: cell-based; details: 50 μg/ml; for CFU: Pseudomonas aeruginosa, untreated 10^7
[3] = tested on: Pseudomonas syringae pv tomato DC3000; assay: PI staining, broad spectrum activity; assay type: cell-based; details: 50 μg/ml
[4] = tested on: Pseudomonas syringae pv tomato DC3000; assay: CFU determination, broad spectrum activity; assay type: cell-based; details: 50 μg/ml, Pseudomonas syringae pv tomato DC3000, untreated 10^7
Xanthomonas 2880 [5] = assay: PI staining, broad spectrum activity; assay type: cell-based; details: 50 μg/ml
Xanthomonas 2880 [6] = assay: CFU determination, broad spectrum activity; assay type: cell-based; details: 50 μg/ml, Xanthomonas 2880, untreated 10^7
Clavibacter michigense [7] = assay: PI staining, broad spectrum activity; assay type: cell-based; details: 50 μg/ml
Clavibacter michigense [8] = assay: CFU determination, broad spectrum activity; assay type: cell-based; details: 50 μg/ml, untreated 10^9
[9] = tested on: Curtobacterium, flaccumfaciens; assay: PI staining, broad spectrum activity; assay type: cell-based; details: 50 μg/ml
[10] = tested on: Curtobacterium, flaccumfaciens; assay: CFU determination, broad spectrum activity; assay type: cell-based; details: 50 μg/ml, untreated 10^9
Bacillus subtilis [11] = assay: PI staining, broad spectrum activity; assay type: cell-based; details: 50 μg/ml
Bacillus subtilis [12] = assay: CFU determination, broad spectrum activity; assay type: cell-based; details: 50 μg/ml, untreated 10^6
Staphylococcus aureus [13] = assay: PI staining, broad spectrum activity; assay type: cell-based; details: 50 μg/ml
Aspergillus flavus = assay: Antifungal activity in 96-well microtiter plates; assay type: cell-based; parameters: key: +++: high sensitivity, no hyphal growth; ++: medium sensitivity; +: low sensitivity; −: no effect; details: 24 h
Aspergillus niger = assay: Antifungal activity in 96-well microtiter plates; assay type: cell-based; parameters: key: +++: high sensitivity, no hyphal growth; ++: medium sensitivity; +: low sensitivity; −: no effect; details: 24 h
Candida albicans = assay: Antifungal activity in 96-well microtiter plates; assay type: cell-based; parameters: key: +++: high sensitivity, no hyphal growth; ++: medium sensitivity; +: low sensitivity; −: no effect; details: 24 h
Candida crusei = assay: Antifungal activity in 96-well microtiter plates; assay type: cell-based; parameters: key: +++: high sensitivity, no hyphal growth; ++: medium sensitivity; +: low sensitivity; −: no effect; details: 24 h
Candida parapsilosis = assay: Antifungal activity in 96-well microtiter plates; assay type: cell-based; parameters: key: +++: high sensitivity, no hyphal growth; ++: medium sensitivity; +: low sensitivity; −: no effect; details: 24 h
[14] = tested on: Rhizopus stolonifer var. stolonifer; assay: Antifungal activity in 96-well microtiter plates; assay type: cell-based; parameters: key: +++: high sensitivity, no hyphal growth; ++: medium sensitivity; +: low sensitivity; −: no effect; details: 24 h
Fusarium graminearum [15] = assay type: cell-based; parameters: key: +++: high sensitivity, no hyphal growth; ++: medium sensitivity; +: low sensitivity; −: no effect; details: 24 h
[16] = tested on: Sinorhizobium meliloti AK631; assay: PI staining of Sinorhizobium meliloti; details: 50 μg/ml; for PI: Sinorhizobium meliloti (AK631)
[17] = tested on: Sinorhizobium meliloti AK631; assay: CFU determination of Sinorhizobium meliloti; details: for CFU % / CFU (colony/ml): 1 hr; for CFU determination (colony formation): 3 hours, 2-3×10^6 bacteria, FIG. 2B; for CFU: Sinorhizobium meliloti (AK631), untreated 10^7; for eradication of the bacteria: from the low dose of 20 μg/ml
Staphylococcus aureus [18] = assay: CFU determination, broad spectrum activity; assay type: cell-based; details: 50 μg/ml, untreated 10^6
Fusarium graminearum [19] = assay type: cell-based; details: 50 μg/ml, same at 24 h and 48 h, FIGS. 11C and 11F
[20] = tested on: Arabidopsis (ecotype: wassilewskiya); assay: Arabidopsis germination and seedling growth; details: 50 μg/ml=42 μM

NCR055: cationic NCR peptide (VNDCIRIHCKDDFDCIENRLQVGCRLQREKPRCVNLVCRCLRR; Peptide derived from Medicago truncatula)
PI (Pseudomonas aeruginosa [1]): PI: 10% | CFU (Pseudomonas aeruginosa [2]): CFU: 10^5 | PI [3]: PI: 85% | CFU [4]: CFU: 0 | PI (Xanthomonas 2880 [5]): PI: 100% | CFU (Xanthomonas 2880 [6]): CFU: 10^4 | PI (Clavibacter michigense [7]): PI: 100% | CFU (Clavibacter michigense [8]): CFU: 0 | PI [9]: PI: 80% | CFU [10]: CFU: 0 | PI (Bacillus subtilis [11]): PI: 100% | CFU (Bacillus subtilis [12]): CFU: 0 | PI (Staphylococcus aureus [13]): PI: 100% | Fungal (hyphal) growth, sensitivity (Aspergillus flavus; 50 μg/ml): + | Fungal (hyphal) growth, sensitivity (Aspergillus flavus; 100 μg/ml): ++ | Fungal (hyphal) growth, sensitivity (Aspergillus niger; 50 μg/ml): ++ | Fungal (hyphal) growth, sensitivity (Aspergillus niger; 100 μg/ml): ++ | Fungal (hyphal) growth, sensitivity (Candida albicans; 50 μg/ml): +++ | Fungal (hyphal) growth, sensitivity (Candida albicans; 100 μg/ml): +++ | Fungal (hyphal) growth, sensitivity (Candida crusei; 50 μg/ml): +++ | Fungal (hyphal) growth, sensitivity (Candida crusei; 100 μg/ml): +++ | Fungal (hyphal) growth, sensitivity (Candida parapsilosis; 50 μg/ml): +++ | Fungal (hyphal) growth, sensitivity (Candida parapsilosis; 100 μg/ml): +++ | Fungal (hyphal) growth, sensitivity ([14]; 50 μg/ml): ++ | Fungal (hyphal) growth, sensitivity ([14]; 100 μg/ml): +++ | Fungal (hyphal) growth, sensitivity (Fusarium graminearum [15]; 50 μg/ml): − | Fungal (hyphal) growth, sensitivity (Fusarium graminearum [15]; 100 μg/ml): ++ | PI staining (PI uptake) ([16]; FIG. 2A, listed as NCR55): provoked PI uptake; also recorded: comparable to heat killed bacteria or bacteria treated with polymyxin B | PI [16]: PI: 80% | CFU % ([17]; 20 μg/ml): 0% | CFU (colony/ml) ([17]; 20 μg/ml): 1800 colony/ml | CFU % ([17]; 50 μg/ml): 0% | CFU (colony/ml) ([17]; 50 μg/ml): 0 colony/ml | CFU determination (colony formation) ([17]; 50 μg/ml): none formed colony | CFU ([17]; 50 μg/ml): CFU: 0 | eradication of the bacteria [17]: able to eradicate the bacteria in less than an hour

NCR247: cationic NCR peptide (RNGCIVDPRCPYQQCRRPLYCRRR; Peptide derived from Medicago truncatula)
PI (Pseudomonas aeruginosa [1]): PI: 15% | CFU (FIG. 10) (Pseudomonas aeruginosa [2]; strain resistant to conventional antibiotics): completely eradicated | PI [3]: PI: 60% | CFU [4]: CFU: 0 | PI (Xanthomonas 2880 [5]): PI: 48% | CFU (Xanthomonas 2880 [6]): CFU: 0 | PI (Clavibacter michigense [7]): PI: 50% | CFU (Clavibacter michigense [8]): CFU: 0 | PI [9]: PI: 27% | CFU [10]: CFU: 0 | PI (Bacillus subtilis [11]): PI: 18% | CFU (Bacillus subtilis [12]): CFU: 10^6 | PI (Staphylococcus aureus [13]): PI: 30% | CFU (Staphylococcus aureus [18]): CFU: 10^5 | Fungal (hyphal) growth, sensitivity (Aspergillus flavus; 25 μg/ml): +++ | Fungal (hyphal) growth, sensitivity (Aspergillus flavus; 50 μg/ml): +++ | Fungal (hyphal) growth, sensitivity (Aspergillus flavus; 100 μg/ml): +++ | Fungal (hyphal) growth, sensitivity (Aspergillus niger; 25 μg/ml): +++ | Fungal (hyphal) growth, sensitivity (Aspergillus niger; 50 μg/ml): +++ | Fungal (hyphal) growth, sensitivity (Aspergillus niger; 100 μg/ml): +++ | Fungal (hyphal) growth, sensitivity (Candida albicans; 25 μg/ml): +++ | Fungal (hyphal) growth, sensitivity (Candida albicans; 50 μg/ml): +++ | Fungal (hyphal) growth, sensitivity (Candida albicans; 100 μg/ml): +++ | Fungal (hyphal) growth, sensitivity (Candida crusei; 25 μg/ml): +++ | Fungal (hyphal) growth, sensitivity (Candida crusei; 50 μg/ml): +++ | Fungal (hyphal) growth, sensitivity (Candida crusei; 100 μg/ml): +++ | Fungal (hyphal) growth, sensitivity (Candida parapsilosis; 25 μg/ml): +++ | Fungal (hyphal) growth, sensitivity (Candida parapsilosis; 50 μg/ml): +++ | Fungal (hyphal) growth, sensitivity (Candida parapsilosis; 100 μg/ml): +++ | Fungal (hyphal) growth, sensitivity ([14]; 25 μg/ml): +++ | Fungal (hyphal) growth, sensitivity ([14]; 50 μg/ml): +++ | Fungal (hyphal) growth, sensitivity ([14]; 100 μg/ml): +++ | Fungal (hyphal) growth, sensitivity (Fusarium graminearum [15]; 25 μg/ml): ++ | Fungal (hyphal) growth, sensitivity (Fusarium graminearum [15]; 50 μg/ml): ++ | Fungal (hyphal) growth, sensitivity (Fusarium graminearum [15]; 100 μg/ml): ++ | spores and hyphae development (Fusarium graminearum [19]): inhibits the spores and hyphae development | PI [16]: PI: 70% | CFU % ([17]; 20 μg/ml): 0% | CFU (colony/ml) ([17]; 20 μg/ml): 0 colony/ml | CFU % ([17]; 50 μg/ml): 0% | CFU (colony/ml) ([17]; 50 μg/ml): 0 colony/ml | CFU determination (colony formation) ([17]; 50 μg/ml): none formed colony | CFU ([17]; 50 μg/ml): CFU: 0 | eradication of the bacteria [17]: able to eradicate the bacteria in less than an hour

Polymyxin B [reference compound]
PI (Pseudomonas aeruginosa [1]): PI: 50% | CFU (Pseudomonas aeruginosa [2]): CFU: 0 | PI [3]: PI: 95% | CFU [4]: CFU:0 | PI (Xanthomonas 2880 [5]): PI: 100% | CFU (Xanthomonas 2880 [6]): CFU: 0 | PI (Clavibacter michigense [7]): PI: 60% | CFU (Clavibacter michigense [8]): CFU: 0 | PI [9]: PI: 60% | CFU [10]: CFU: 0 | PI (Bacillus subtilis [11]): PI: 60% | CFU (Bacillus subtilis [12]): CFU: 10^6 | PI (Staphylococcus aureus [13]): PI: 75% | CFU (Staphylococcus aureus [18]): CFU: 10^6 | PI [16]: PI: 70% | CFU % ([17]; 50 μg/ml): 0% | CFU (colony/ml) ([17]; 50 μg/ml): 0 colony/ml | CFU determination (colony formation) ([17]; 50 μg/ml): none formed colony | CFU ([17]; 50 μg/ml): CFU: 10^5 | effect on plant growth [20]: inhibits growth

Reference: patent US8592367B2, “Nodule specific medicago peptides having antimicrobial activity and pharmaceutical compositions containing the same” (priority 2009, dated 2013)
